Earlier results in patent US8822536B2, “Dietary supplements containing terpenoid acids of maslinic acid or oleanolic acid and process for enhancing muscle mass in mammals” (FHG Corporation d/b/a Integrity Nutraceuticals, priority 2009, dated 2014).

Key:
juvenile dentex fish = conditions: 80 mg kg-1
glycogen phosphorylase = target: T1, glycogen phosphorylase (Oryctolagus cuniculus, UniProt P00489)
T1 sequence (P00489 2-843 limits assumed): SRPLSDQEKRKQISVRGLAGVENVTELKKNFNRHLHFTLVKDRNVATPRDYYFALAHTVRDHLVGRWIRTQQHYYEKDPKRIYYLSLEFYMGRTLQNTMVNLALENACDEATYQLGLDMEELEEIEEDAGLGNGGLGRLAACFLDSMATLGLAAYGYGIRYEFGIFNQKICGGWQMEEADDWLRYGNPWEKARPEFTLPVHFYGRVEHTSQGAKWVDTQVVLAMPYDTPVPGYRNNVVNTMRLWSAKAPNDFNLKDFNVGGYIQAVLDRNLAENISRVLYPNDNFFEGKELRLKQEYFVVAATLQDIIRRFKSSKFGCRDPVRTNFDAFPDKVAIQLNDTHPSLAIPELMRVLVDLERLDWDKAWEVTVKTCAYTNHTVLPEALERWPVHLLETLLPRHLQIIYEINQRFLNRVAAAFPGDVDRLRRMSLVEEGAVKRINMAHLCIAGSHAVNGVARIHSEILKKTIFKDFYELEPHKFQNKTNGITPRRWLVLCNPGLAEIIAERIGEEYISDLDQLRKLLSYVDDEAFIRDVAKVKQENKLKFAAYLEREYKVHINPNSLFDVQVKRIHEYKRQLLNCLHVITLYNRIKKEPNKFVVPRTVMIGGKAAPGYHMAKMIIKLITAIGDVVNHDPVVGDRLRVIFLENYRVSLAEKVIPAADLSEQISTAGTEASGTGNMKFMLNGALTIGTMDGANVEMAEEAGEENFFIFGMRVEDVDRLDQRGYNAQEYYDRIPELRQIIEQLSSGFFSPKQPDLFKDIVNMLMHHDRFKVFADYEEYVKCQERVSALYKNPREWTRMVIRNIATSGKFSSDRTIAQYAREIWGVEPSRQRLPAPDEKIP

[1] = trout fed 250 mg kg-1, with respect to a control
[2] = trout fed 25 and 250 mg kg-1, white muscle

Compound: CC1(C)CC[C@]2(C(=O)O)CC[C@]3(C)C(=CC[C@@H]4[C@@]5(C)C[C@@H](O)[C@H](O)C(C)(C)[C@@H]5CC[C@]43C)[C@@H]2C1 [maslinic acid, 2-α,3-β-dihydroxyolean-12-en-28-oic acid]
- protein degradation rate, relative (KD) and absolute (AD) (trout; dietary maslinic acid, trout): stimulated
- protein synthesis (trout; dietary maslinic acid, trout): induces higher protein synthesis
- feed-efficiency ratio (FER) (trout; [1]): increased
- protein-efficiency ratio (PER) (trout; [1]): increased
- absolute protein-degradation rate (AD) (trout; [2]): only a minor increase
- fractional protein-degradation rate (KD) (trout; [2]): no significant changes
- protein-synthesis rate (KS and AS) (trout; [2]): increased
- protein-accumulation rates (KG and AG) (trout; trout fed with maslinic acid): high protein-accumulation rates
- growth of juvenile dentex fish (juvenile dentex fish): retard
- accumulation of glycogen in liver (rainbow trout liver): high accumulation of glycogen
- glycogen phosphorylase inhibition (glycogen phosphorylase): new type of glycogen phosphorylase inhibitor
